Consider 23 compounds from patent US20100119599A1 (ARCHER PHARMACEUTICALS, INC., priority 2006, published 2010).

Molecules are shown by their SMILES. Read-outs that look alike come from different tables or passages of the source.

Experiment [1] deals with Aβ1-42. Kind of experiment: Measurement of Aβ1-42 in culture medium of 7W WT APP751 CHO cells by ELISA.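 For Aβ1-42 (% of control): 5 µM test compound but RI-coded compounds at 10 µM for 24 hours.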 It counts as cell-based, Chinese hamster. The note with it: for activity at 5 µM: Cricetulus griseus, 5 μM test compound, CHO cells stably transfected with human APP751, culture medium, ELISA, control DMSO; for Aβ1-42 (% of control): CHO cells that overexpress APP751, zero = below the detection limit of the assay. (ELISA stands for enzyme-linked immunosorbent assay.)

The test system of experiment [2] is Aβ1-40. Kind of experiment: Measurement of Aβ1-40 in culture medium of 7W WT APP751 CHO cells by ELISA.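 For all read-outs here: 5 µM test compound but RI-coded compounds at 10 µM for 24 hours.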 In kind it is cell-based, Chinese hamster. The conditions noted are these: for activity at 5 µM: Cricetulus griseus, 5 μM test compound, CHO cells stably transfected with human APP751, culture medium, ELISA, control DMSO; for Aβ1-40 (% of control): CHO cells that overexpress APP751, zero = below the detection limit of the assay.

Where [3] appears, read: Table 1, 0 = no detectable amount, read-out: Aβ1-42 (% of control).
Where [4] appears, read: Table 1, 0 = no detectable amount.

`CC(=O)Oc1ccc(C2C(C(=O)OCCOc3ccccc3)=C(C)NC3=C2C(=O)CC(c2ccccc2)C3)cc1` (stereo not shown) [ST017230, 4-{2-methyl-5-oxo-7-phenyl-3-[(2-phenoxyethyl)oxycarbonyl]-4-1,4,6,7,8-pentahydroquinolyl}phenyl acetate]: the values for the activity at 5 µM in experiment [1] (setting [3]) and in experiment [2] (setting [4]) were 84.7% and 69.1%, respectively.
For `COCCOC(=O)C1=C(C)NC2=C(C(=O)CC(c3ccc(Cl)cc3)C2)C1c1ccc([N+](=O)[O-])cc1` (stereo not shown) [ST016971, 2-methoxyethyl 7-(4-chlorophenyl)-2-methyl-4-(4-nitrophenyl)-5-oxo-1,4,6,7,8-pentahydroquinoline-3-carboxylate], in that order: 86.2% and 27.3%.
Consider `COC(=O)C1=C(C)NC2=C(C(=O)CC(c3cccs3)C2)C1c1cccc(C(F)(F)F)c1` (stereo not shown) [ST052393, methyl 2-methyl-5-oxo-7-(2-thienyl)-4-[3-(trifluoromethyl)phenyl]-1,4,6,7,8-pentahydroquinoline-3-carboxylate], for which the activity at 5 µM in experiment [1] (setting [3]) came out at 48.2%; in experiment [2] (setting [4]), 34.2%.
`N#CC1=C(N)n2c(s/c(=C/c3ccncc3)c2=O)=C(C#N)C1c1ccncc1` (stereo not shown) [ST211853, 5-amino-3-oxo-7-(4-pyridyl)-2-(4-pyridylmethylene)-4,7-dihydro-1,3-thiazolidino[3,2-a]pyridine-6,8-dicarbonitrile]: in experiment [1], the “Aβ1-42 (% of control)” value is on record as 18.37 % of control. Further, the “Aβ1-40 (% of control)” value in experiment [2] was 49 % of control.
Take `N#CC1=C(N)Nc2c(c(=O)oc3ccccc23)C1c1ccc(Cl)cc1` (stereo not shown) [ST014144, 2-amino-4-(4-chlorophenyl)-5-oxo-1,4-dihydrochromeno[4,3-b]pyridine-3-carbonitrile]: the “Aβ1-42 (% of control)” value in experiment [1] is recorded as 66.02 % of control. For the same compound, the “Aβ1-40 (% of control)” value in experiment [2] is reported as 66.08 % of control.
In the case of `CC1=C(C(=O)OC(C)C)C(c2ccncc2)C2=C(CCCC2=O)N1` (stereo not shown) [ST013090, methylethyl 2-methyl-5-oxo-4-(4-pyridyl)-1,4,6,7,8-pentahydroquinoline-3-carboxylate], the activity at 5 µM in experiment [1] (setting [3]) worked out at 87.3%; in experiment [2] (setting [4]), 41.1%.
Consider `CCOC(=O)C1=C(N)n2c(s/c(=C/c3ccccc3Cl)c2=O)=C(C#N)C1c1ccccc1Cl` (stereo not shown) [ST215651, ethyl 5-amino-7-(2-chlorophenyl)-2-[(2-chlorophenyl)methylene]-8-cyano-3-oxo-4,7-dihydro-1,3-thiazolidino[3,2-a]pyridine-6-carboxylate], for which the “Aβ1-42 (% of control)” value in experiment [1] was 42.3 % of control. In addition, the “Aβ1-40 (% of control)” value in experiment [2] is on record as 80.92 % of control.
For `COC(=O)C1=CNC=C(C(=O)OC)C1c1cccc(OCc2ccccc2)c1` [ST052273, methyl 5-(methoxycarbonyl)-4-[3-(phenylmethoxy)phenyl]-1,4-dihydropyridine-3-carboxylate], in that order: 57.92 % of control and 84.66 % of control.
Regarding `CCOC(=O)C1=CN(c2ccc(F)cc2)C=C(C(=O)OCC)C1c1ccccc1OCC` [ST052316, ethyl 5-(ethoxycarbonyl)-4-(2-ethoxyphenyl)-1-(4-fluorophenyl)-1,4-dihydropyridine-3-carboxylate], in experiment [1], the “Aβ1-42 (% of control)” value is reported as 40.03 % of control. Also, the “Aβ1-40 (% of control)” value in experiment [2] is given as 68.09 % of control.
For `CC1=C(C(=O)Nc2ccccc2)C(c2cccs2)C(C#N)=C(SCC(=O)Nc2ccc(C)cc2)N1` (stereo not shown) [RI_50], in that order: 38.2 % of control and 55.2 % of control.
Regarding `CCCOC(=O)C1=C(C)NC2=C(C(=O)CCC2)C1c1ccc(Br)cc1` (stereo not shown) [ST017259, propyl 4-(4-bromophenyl)-2-methyl-5-oxo-1,4,6,7,8-pentahydroquinoline-3-carboxylate], the activity at 5 µM in experiment [1] (setting [3]) was found to be 87%; in experiment [2] (setting [4]) it was 65.5%.
As for `N#CC1=C(N)NC(SCC(N)=O)=C(C#N)C1c1ccccc1Cl` (stereo not shown) [ST050859, 2-[6-amino-4-(2-chlorophenyl)-3,5-dicyano-2-1,4-dihydropyridylthio]acetamide], the “Aβ1-42 (% of control)” value in experiment [1] was 35.47 % of control. The “Aβ1-40 (% of control)” value in experiment [2] is reported as 75.54 % of control.
For `CC1=C(C(=O)Nc2ccccc2)C(c2ccsc2)C(C#N)=C(SCC(=O)Nc2ccccc2)N1` (stereo not shown) [RI_6], in that order: 65.1 % of control and 77.7 % of control.
`CC1=C(C(=O)OCCc2ccccc2)C(c2ccc(Cl)cc2)C2=C(CC(C)(C)CC2=O)N1` (stereo not shown) [ST015106, 2-phenylethyl 4-(4-chlorophenyl)-2,7,7-trimethyl-5-oxo-1,4,6,7,8-pentahydroquinoline-3-carboxylate]: the figures for the activity at 5 µM in experiment [1] (setting [3]) and in experiment [2] (setting [4]) were 0% and 13.2%, respectively.
Consider `COc1cc(/C=c2\sc3n(c2=O)C(N)=C(C#N)C(c2cc(OC)c(OC)c(OC)c2)C=3C#N)cc(OC)c1OC` (stereo not shown) [ST025031, 5-amino-3-oxo-7-(3,4,5-trimethoxyphenyl)-2-[(3,4,5-trimethoxyphenyl)methylene]-4,7-dihydro-1,3-thiazolidino[3,2-a]pyridine-6,8-dicarbonitrile], for which the “Aβ1-42 (% of control)” value in experiment [1] is 77.59 % of control. Also, in experiment [2], the “Aβ1-40 (% of control)” value is given as 55.17 % of control.
In the same order, the values of `CC1=C(C(=O)Nc2ccccc2)C(c2cccs2)C(C#N)=C(SCC(=O)Nc2ccc(Cl)cc2)N1` (stereo not shown) [RI_74] are 41.6 % of control and 31.4 % of control.
`CC1=C(C(=O)OCCc2ccccc2)C(c2ccc([N+](=O)[O-])cc2)C2=C(CC(c3ccccc3)CC2=O)N1` (stereo not shown) [ST015255, 2-phenylethyl 2-methyl-4-(4-nitrophenyl)-5-oxo-7-phenyl-1,4,6,7,8-pentahydroquinoline-3-carboxylate]: the activity at 5 µM turned out to be 74.7% in experiment [1] (setting [3]) and 40.5% in experiment [2] (setting [4]).
With `CCc1cccc(NC(=O)CSC2=C(C#N)C(c3sccc3Oc3ccccc3)C(C(=O)Nc3ccccc3)=C(C)N2)c1` (stereo not shown) [RI_81], the “Aβ1-42 (% of control)” value in experiment [1] is listed as 100 % of control. Besides, in experiment [2], the “Aβ1-40 (% of control)” value is listed as 73.6 % of control.
As for `COc1ccc(C2CC(=O)C3=C(C2)NC(C)=C(C(=O)OC(C)C)C3c2ccc(F)cc2)cc1` (stereo not shown) [ST017066, methylethyl 4-(4-fluorophenyl)-7-(4-methoxyphenyl)-2-methyl-5-oxo-1,4,6,7,8-pentahydroquinoline-3-carboxylate], the activity at 5 µM turned out to be 57.4% in experiment [1] (setting [3]) and 24.9% in experiment [2] (setting [4]).
For `CC1=C(C(=O)Nc2ccccc2)C(c2ccsc2)C(C#N)=C(S)N1` (stereo not shown) [RI_29], the “Aβ1-42 (% of control)” value in experiment [1] is 100 % of control. Further, the “Aβ1-40 (% of control)” value in experiment [2] is 79.7 % of control.
For the compound `Cc1cc(=O)cc(C)n1NC(N)=S` [ST002431, 1-[(aminothioxomethyl)amino]-2,6-dimethylhydropyridin-4-one], the activity at 5 µM came out at 97.6% in experiment [1] (Table 3, read-out: Aβ-42 (% of control)) and 16.9% in experiment [2] (Table 3).
For `N#CC1=C(N)N(c2ccc(F)cc2)C2=C(C(=O)CC(c3ccccc3)C2)C1c1ccsc1` (stereo not shown) [ST040993, 2-amino-1-(4-fluorophenyl)-5-oxo-7-phenyl-4-(3-thienyl)-1,4,6,7,8-pentahydroquinoline-3-carbonitrile], the activity at 5 µM in experiment [1] (setting [3]) came to 46.9%; in experiment [2] (setting [4]), 65.7%.
In the same order, the values of `CCOC(=O)C1=C(C)NC2=C(C(=O)CC(c3ccc(OC)cc3)C2)C1c1cccc(Cl)c1` (stereo not shown) [ST017144, ethyl 4-(3-chlorophenyl)-7-(4-methoxyphenyl)-2-methyl-5-oxo-1,4,6,7,8-pentahydroquinoline-3-carboxylate] are 55.6% and 23.4%.
